# Measured values: patent publication US6403808B1, “Selective 5-HT6 receptor ligands” (priority 2001, dated 2002)
# Counter-ions that a name gives are not always drawn. Like-named read-outs stand apart in the source and are kept apart here.
# Tests used:
# human 5-HT6 = target: T1, human 5-HT6 (Homo sapiens, UniProt P50406); experiment: biochemical; format: binding
# T1 construct: expressed in transfected cells; host or cells: HEK 293
# rD2 = rD2 (Rattus norvegicus, UniProt P61169); experiment: NIMH PDSP selectivity binding, rD2
# rD2, sequence (P61169 whole entry): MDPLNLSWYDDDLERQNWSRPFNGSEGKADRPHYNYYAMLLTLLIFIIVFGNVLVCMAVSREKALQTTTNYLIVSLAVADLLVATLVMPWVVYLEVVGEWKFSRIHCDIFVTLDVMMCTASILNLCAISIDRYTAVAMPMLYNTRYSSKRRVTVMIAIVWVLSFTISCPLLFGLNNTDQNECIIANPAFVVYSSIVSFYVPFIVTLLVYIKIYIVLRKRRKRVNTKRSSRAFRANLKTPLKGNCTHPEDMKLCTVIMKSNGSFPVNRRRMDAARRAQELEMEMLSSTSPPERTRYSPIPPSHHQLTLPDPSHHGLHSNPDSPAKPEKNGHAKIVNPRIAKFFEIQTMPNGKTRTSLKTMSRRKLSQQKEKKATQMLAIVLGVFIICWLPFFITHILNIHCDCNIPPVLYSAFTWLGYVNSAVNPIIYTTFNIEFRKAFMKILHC
# Excerpt: (§1) . […] NET and SERT represent the norepinephrine and serotonin transporters.
# rD3 = rD3 (Rattus norvegicus, UniProt P19020); experiment: NIMH PDSP selectivity binding, rD3
# rD3, sequence (P19020 whole entry): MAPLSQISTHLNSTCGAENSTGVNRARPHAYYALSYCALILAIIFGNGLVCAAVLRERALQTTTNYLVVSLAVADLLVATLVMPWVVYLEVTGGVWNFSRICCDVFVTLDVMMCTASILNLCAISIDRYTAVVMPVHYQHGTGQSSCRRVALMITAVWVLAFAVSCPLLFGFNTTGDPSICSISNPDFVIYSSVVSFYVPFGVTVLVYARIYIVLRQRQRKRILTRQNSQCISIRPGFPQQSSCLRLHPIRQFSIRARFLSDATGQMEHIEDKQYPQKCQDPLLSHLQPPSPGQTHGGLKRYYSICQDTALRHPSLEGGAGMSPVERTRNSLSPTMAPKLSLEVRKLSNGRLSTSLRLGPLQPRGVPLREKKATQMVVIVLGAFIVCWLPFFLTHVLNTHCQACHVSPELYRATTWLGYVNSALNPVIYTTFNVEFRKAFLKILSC
# Excerpt: as §1
# hD1 = hD1 (Homo sapiens, UniProt P21728); experiment: NIMH PDSP selectivity binding, hD1
# hD1, sequence (P21728 whole entry): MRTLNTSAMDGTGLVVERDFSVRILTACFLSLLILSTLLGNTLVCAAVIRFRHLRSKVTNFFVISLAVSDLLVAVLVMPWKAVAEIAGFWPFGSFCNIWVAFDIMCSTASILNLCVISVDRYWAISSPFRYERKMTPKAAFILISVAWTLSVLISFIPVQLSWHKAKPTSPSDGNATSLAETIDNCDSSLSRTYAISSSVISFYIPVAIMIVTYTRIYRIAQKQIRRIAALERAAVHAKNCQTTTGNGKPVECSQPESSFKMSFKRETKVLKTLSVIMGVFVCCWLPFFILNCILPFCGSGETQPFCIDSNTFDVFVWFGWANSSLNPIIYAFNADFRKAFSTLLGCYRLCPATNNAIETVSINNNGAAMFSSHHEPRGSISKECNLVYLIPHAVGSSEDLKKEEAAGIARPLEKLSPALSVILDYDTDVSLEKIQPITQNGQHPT
# Excerpt: as §1
# rD4 = target: T2, rD4 (Rattus norvegicus, UniProt P30729); experiment: NIMH PDSP selectivity binding, rD4
# T2 sequence (P30729 1-387): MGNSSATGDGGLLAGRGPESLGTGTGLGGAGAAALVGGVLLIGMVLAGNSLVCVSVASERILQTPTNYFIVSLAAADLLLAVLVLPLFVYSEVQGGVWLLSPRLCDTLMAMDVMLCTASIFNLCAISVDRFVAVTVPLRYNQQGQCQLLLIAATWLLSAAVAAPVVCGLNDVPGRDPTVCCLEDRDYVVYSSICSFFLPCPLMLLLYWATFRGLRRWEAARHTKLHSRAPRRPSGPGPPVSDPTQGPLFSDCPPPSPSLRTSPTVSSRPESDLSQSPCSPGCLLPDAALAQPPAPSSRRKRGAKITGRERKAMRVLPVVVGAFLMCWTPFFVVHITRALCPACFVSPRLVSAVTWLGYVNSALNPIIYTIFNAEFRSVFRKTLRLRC
# Excerpt: as §1
# hD5 = hD5 (Homo sapiens, UniProt P21918); experiment: NIMH PDSP selectivity binding, hD5
# hD5, sequence (P21918 whole entry): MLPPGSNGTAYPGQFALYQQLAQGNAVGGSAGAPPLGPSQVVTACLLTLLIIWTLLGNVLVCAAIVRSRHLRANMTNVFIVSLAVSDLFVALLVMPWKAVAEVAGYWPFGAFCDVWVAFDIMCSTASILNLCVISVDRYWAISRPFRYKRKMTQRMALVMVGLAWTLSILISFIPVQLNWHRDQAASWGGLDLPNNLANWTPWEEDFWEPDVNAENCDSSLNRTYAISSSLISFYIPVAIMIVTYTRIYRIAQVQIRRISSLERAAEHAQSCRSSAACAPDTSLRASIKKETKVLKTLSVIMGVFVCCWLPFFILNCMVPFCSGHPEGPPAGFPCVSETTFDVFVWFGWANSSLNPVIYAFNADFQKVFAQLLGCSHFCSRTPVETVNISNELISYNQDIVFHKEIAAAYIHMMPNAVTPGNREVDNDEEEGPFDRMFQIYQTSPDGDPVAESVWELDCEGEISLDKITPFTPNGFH
# Excerpt: as §1
# 5-HT3 receptors = target: T3, 5-HT3 receptors (Homo sapiens, UniProt P46098); experiment: Affinity at 5-HT3 receptors; format: binding
# T3 sequence (P46098 24-478): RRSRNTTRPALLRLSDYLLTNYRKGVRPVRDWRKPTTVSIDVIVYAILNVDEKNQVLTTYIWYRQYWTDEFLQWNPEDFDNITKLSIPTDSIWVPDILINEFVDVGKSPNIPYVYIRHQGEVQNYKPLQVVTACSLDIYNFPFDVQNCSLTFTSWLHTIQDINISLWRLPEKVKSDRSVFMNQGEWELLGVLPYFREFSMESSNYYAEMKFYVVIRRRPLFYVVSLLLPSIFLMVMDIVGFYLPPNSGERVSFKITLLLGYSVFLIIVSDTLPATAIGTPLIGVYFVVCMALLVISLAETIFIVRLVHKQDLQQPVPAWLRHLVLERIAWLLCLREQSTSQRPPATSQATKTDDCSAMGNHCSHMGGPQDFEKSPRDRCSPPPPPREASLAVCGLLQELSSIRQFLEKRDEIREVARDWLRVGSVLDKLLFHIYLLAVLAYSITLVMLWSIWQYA
# [1] = target: T4, Human 5-HT6 receptors stably expressed in 293 HEK cells (Homo sapiens, UniProt P50406); experiment: cAMP activation assay (adenylate cyclase activity); format: cell-based; details: 5-HT6 receptor
# T4 construct: expressed in transfected cells; host or cells: HEK 293
# T4 sequence (P50406 whole entry): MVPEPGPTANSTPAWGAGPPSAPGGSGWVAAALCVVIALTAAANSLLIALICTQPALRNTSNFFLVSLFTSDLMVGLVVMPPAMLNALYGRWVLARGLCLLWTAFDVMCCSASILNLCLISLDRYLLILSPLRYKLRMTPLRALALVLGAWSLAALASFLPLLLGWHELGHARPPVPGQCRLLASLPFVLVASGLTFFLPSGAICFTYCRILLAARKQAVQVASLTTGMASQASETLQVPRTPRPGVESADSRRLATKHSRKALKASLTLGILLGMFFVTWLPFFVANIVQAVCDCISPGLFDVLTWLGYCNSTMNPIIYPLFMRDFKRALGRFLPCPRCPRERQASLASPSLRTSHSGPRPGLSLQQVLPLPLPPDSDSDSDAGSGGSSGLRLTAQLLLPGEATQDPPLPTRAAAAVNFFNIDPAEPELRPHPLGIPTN
# Procedure: Human 5-HT6 receptors stably expressed in 293 HEK cells were grown in 24-well plates to near confluence and 18 h prior to the assay the medium was replaced with DMEM containing dialyzed 10% Fetal Calf Serum. For the assay, the medium was aspirated and replaced with fresh DMEM without serum and incubated with various concentrations of compounds of the invention in a total volume of 0.5 ml for 15 min. The assay was terminated by aspiration and the addition of 10% trichloroacetic acid (TCA). The TCA extract was used for cAMP determinations. (Data represent the mean of N=4 separate determinations). Results of cAMP activation by various compounds of the invention are shown in the attached Drawing of FIG. 1.
# T1 sequence (P50406 whole entry): as above
smiles,measurement,setting,value
"Cc1[nH]c2ccccc2c1CCN(C)C [2-methyl-N,N-dimethyltryptamine]",Ki,"human 5-HT6; read-out: affinity for the 5-HT6 receptor, Ki",308 nM
"COc1ccc2[nH]c(C)c(CCN(C)C)c2c1 [Compound A, 2-methyl-5-methoxy-N,N-dimethyltryptamine]",Ki,rD2,> 10 µM
same,Ki,rD3,> 10 µM
same,Ki,hD1,> 10 µM
same,Ki,rD4,> 10 µM
same,Ki,hD5,> 10 µM
"CCc1[nH]c2ccc(OC)cc2c1CCN(C)C [Compound B, 2-ethyl-5-methoxy-N,N-dimethyltryptamine maleate]",Ki,rD2,> 10 µM
same,Ki,rD3,> 10 µM
same,Ki,hD1,> 10 µM
same,Ki,rD4,> 10 µM
same,Ki,hD5,> 10 µM
"Cc1[nH]c2ccc(O)cc2c1CCN [2-methyl-5-HT, reference compound]",affinity for the 5-HT6 receptor (in words),human 5-HT6,high affinity
same,affinity for the 5-HT6 receptor (in words),human 5-HT6; listed as 2-methyly-5-HT,affinity equivalent to that of the parent compound
same,greater affinity at 5-HT6 than at 5-HT3 receptors,5-HT3 receptors; 5-HT6 over 5-HT3,20 fold
"COc1ccc2[nH]c(-c3ccccc3)c(CCN(C)C)c2c1 [Compound D, 5-methoxy-2-phenyl-N,N-dimethyltryptamine oxalate]",Ki,"rD2; rD2, read-out: Ki",≥ 10 µM
same,Ki,"hD1; hD1, read-out: Ki",≥ 10 µM
same,Ki,"rD4; rD4, read-out: Ki",≥ 10 µM
"COc1ccc2c(c1)c(CCN(C)C)c1n2CCCC1=O [I, 6,7,8,9-tetrahydro-2-methoxy-10-(N,N-dimethylaminoethyl)pyridol[1,2-a]indole-9-one Oxalate]",Ki,"human 5-HT6; human 5-HT6 in HEK 293, [3H]LSD, third table, read-out: Ki",84 nM
"COc1ccc2[nH]c(C)c(CCN)c2c1 [5-methoxy-2-methyltryptamine, reference compound]",affinity for the 5-HT6 receptor (in words),human 5-HT6,affinity comparable to 2-methyl-5-HT
same,affinity for 5-HT3 receptors (in words),5-HT3 receptors,lacks affinity
COc1ccc2[nH]c(-c3ccccc3)c(CCN)c2c1 [5-methoxy-2-phenylotryptamine],effect on adenylate cyclase activity (in words),[1],antagonist to 5-HT stimulated adenylate cyclase activity
same,affinity for the 5-HT6 receptor (in words),human 5-HT6,high affinity
